{
  "source": "patent US20240108601A1",
  "about": "“TREATMENT OF MENTAL DISORDERS” (GH Research Ireland Limited, priority 2022, published 2024)",
  "key": {"[1]": {"test": "Metabolic stability in Hμrel human hepatocyte co-culture", "settings": "human"}, "[2]": {"tested_on": "human hepatocytes (Hμrel HumanPool co-culture)", "test": "Metabolic stability in Hμrel human hepatocyte co-culture"}, "[3]": {"tested_on": "human hepatocytes", "test": "Metabolite identification in human hepatocyte suspension", "settings": "5-MeO-DMT free base 10 μM, incubated up to 120 minutes", "description": "For incubations with cryopreserved hepatocytes, the 2 mM stock solution was diluted with Leibovitz L-15 medium to a concentration of 20 μM or 2 μM. An aliquot (250 μL) of the 20 μM and 2 μM test substance formulations was added to each hepatocyte incubation sample (250 μL), as appropriate, so that the final test substance concentration in the incubations was 10 μM or 1 μM, respectively, and incubations contained less than 1% (v/v) solvent.\nIncubations were performed at ca. 37° C. in a shaking water bath (total incubation volume 0.5 mL). For 1 μM, incubations were terminated after 0, 5, 10, 20, 30, 60 and 120 minutes, by the addition of ice-cold acetonitrile (0.5 mL).\nThe samples were vortex mixed and centrifuged at ca 13,000 rpm for 10 minutes at room temperature. Following centrifugation, the protein-free supernatants were removed for analysis.\nBlank control incubations were carried out with Leibovitz L-15 medium in place of the test substance. No cells control samples were performed with Leibovitz L-15 medium in place of hepatocytes. Aliquots of the blank control samples were taken at 120 minutes, while no cells control samples were taken at 0, 30 and 120 for 1 μM incubations and at 0 and 120 minutes for 10 μM incubations.\nAll 1 μM incubations were performed in duplicate, while all 10 μM incubations were performed in singlet. All samples were stored at −80° C. (nominal) prior to analysis.\nPrior to sample analysis a 100 μL aliquot of each sample was evaporated to near dryness under a steady stream of nitrogen at room temperature, and subsequently reconstituted in 50 μL of mobile phase A (0.1% formic acid in water). Each sample (0, 30 and 120-minute, 10 μM) was analysed using accurate mass LC-MS to determine relative levels of parent compound at each time-point, and determine the profile of metabolites formed. Appropriate blank and control samples were also analysed. The 10 and 60-minute, 10 μM incubation samples were not analysed and were stored at −80° C. (nominal). […]"}, "[4]": {"molecular_target": "T1, 5-HT1A receptors (Homo sapiens, UniProt P08908)", "T1 construct": "hippocampal membranes (400 μl; equivalent 1.25 mg wet weight tissue/tube) were incubated with 50 μl of 0.6 nM; tissue Edinburgh Sudden Death Brain Bank; host or cells: post-mortem human hippocampus membranes", "T1 sequence (P08908 1-422)": "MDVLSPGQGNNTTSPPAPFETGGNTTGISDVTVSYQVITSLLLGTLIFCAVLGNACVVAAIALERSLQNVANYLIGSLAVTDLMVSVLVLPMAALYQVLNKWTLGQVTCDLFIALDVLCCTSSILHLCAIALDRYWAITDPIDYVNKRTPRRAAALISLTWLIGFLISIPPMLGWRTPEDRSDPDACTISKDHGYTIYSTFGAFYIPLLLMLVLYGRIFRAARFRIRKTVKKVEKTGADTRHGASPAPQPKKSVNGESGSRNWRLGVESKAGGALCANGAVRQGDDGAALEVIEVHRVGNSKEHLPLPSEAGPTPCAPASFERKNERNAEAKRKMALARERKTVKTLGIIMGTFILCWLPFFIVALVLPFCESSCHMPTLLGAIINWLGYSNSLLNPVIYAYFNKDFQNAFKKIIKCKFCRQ", "test": "Radioligand ([3H]8-OH-DPAT) binding to 5-HT1A receptors in post-mortem human hippocampus membranes"}, "[5]": {"molecular_target": "T2, 5-HT2A receptors (Homo sapiens, UniProt P28223)", "T2 construct": "frontal cortical membranes (400 μl; equivalent 4 mg wet weight tissue/tube) was incubated with 50 μl of 0.1 nM; tissue Edinburgh Sudden Death Brain Bank; host or cells: post-mortem human frontal cortex membranes", "T2 sequence (P28223 whole entry)": "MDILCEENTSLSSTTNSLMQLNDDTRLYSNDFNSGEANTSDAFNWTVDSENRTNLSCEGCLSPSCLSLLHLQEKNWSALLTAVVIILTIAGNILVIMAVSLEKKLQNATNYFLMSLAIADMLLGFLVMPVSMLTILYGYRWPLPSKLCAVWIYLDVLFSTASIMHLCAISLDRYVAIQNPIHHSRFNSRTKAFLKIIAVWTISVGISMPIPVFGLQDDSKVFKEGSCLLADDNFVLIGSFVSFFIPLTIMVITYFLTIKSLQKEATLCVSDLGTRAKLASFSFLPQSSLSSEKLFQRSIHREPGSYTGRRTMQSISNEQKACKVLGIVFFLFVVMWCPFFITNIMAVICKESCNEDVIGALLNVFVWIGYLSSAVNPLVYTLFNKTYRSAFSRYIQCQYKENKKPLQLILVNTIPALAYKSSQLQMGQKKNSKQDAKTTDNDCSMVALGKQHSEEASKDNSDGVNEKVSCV", "test": "Radioligand ([3H]MDL-100,907) binding to 5-HT2A receptors in post-mortem human frontal cortex membranes"}},
  "data": [
    {"smiles": "COc1ccc2[nH]cc(CCO)c2c1", "note": "[5-methoxytryptophol, 5-Methoxyindole-3-ethanol]", "values": [
      {"measurement": "half-life at 1 µM", "setting": "[1]", "result": 2.37, "unit": "h"},
      {"measurement": "hepatocyte CLint at 1 µM", "setting": "[1]", "result": 16.2, "unit": "µL/min/1e6 cells"},
      {"measurement": "Disappearance with stromal cell controls", "setting": "[2]; 0-72 h", "result": "no disappearance"},
      {"measurement": "Relative LC/MS peak area remaining", "setting": "[2]; 1 μM Hepatocytes, 0 h", "result": 100, "unit": "%"},
      {"measurement": "Relative LC/MS peak area remaining", "setting": "[2]; 1 μM Hepatocytes, 1 h", "result": 79, "unit": "%"},
      {"measurement": "Relative LC/MS peak area remaining", "setting": "[2]; 1 μM Hepatocytes, 2 h", "result": 57, "unit": "%"},
      {"measurement": "Relative LC/MS peak area remaining", "setting": "[2]; 1 μM Hepatocytes, 4 h", "result": 33, "unit": "%"},
      {"measurement": "Relative LC/MS peak area remaining", "setting": "[2]; 1 μM Hepatocytes, 8 h", "result": 10, "unit": "%"},
      {"measurement": "Relative LC/MS peak area remaining", "setting": "[2]; 1 μM Hepatocytes, 24 h", "result": 0, "unit": "%"},
      {"measurement": "Relative LC/MS peak area remaining", "setting": "[2]; 1 μM Hepatocytes, 48 h", "result": 0, "unit": "%"},
      {"measurement": "Relative LC/MS peak area remaining", "setting": "[2]; 1 μM Hepatocytes, 72 h", "result": 0, "unit": "%"},
      {"measurement": "Relative LC/MS peak area remaining", "setting": "[2]; 1 μM Stromal cells, 0 h", "result": 100, "unit": "%"},
      {"measurement": "Relative LC/MS peak area remaining", "setting": "[2]; 1 μM Stromal cells, 4 h", "result": 97, "unit": "%"},
      {"measurement": "Relative LC/MS peak area remaining", "setting": "[2]; 1 μM Stromal cells, 8 h", "result": 107, "unit": "%"},
      {"measurement": "Relative LC/MS peak area remaining", "setting": "[2]; 1 μM Stromal cells, 24 h", "result": 94, "unit": "%"},
      {"measurement": "Relative LC/MS peak area remaining", "setting": "[2]; 1 μM Stromal cells, 48 h", "result": 102, "unit": "%"},
      {"measurement": "Relative LC/MS peak area remaining", "setting": "[2]; 1 μM Stromal cells, 72 h", "result": 104, "unit": "%"},
      {"measurement": "Relative LC/MS peak area remaining", "setting": "[2]; 10 μM Hepatocytes, 0 h", "result": 100, "unit": "%"},
      {"measurement": "Relative LC/MS peak area remaining", "setting": "[2]; 10 μM Hepatocytes, 1 h", "result": 87, "unit": "%"},
      {"measurement": "Relative LC/MS peak area remaining", "setting": "[2]; 10 μM Hepatocytes, 2 h", "result": 81, "unit": "%"},
      {"measurement": "Relative LC/MS peak area remaining", "setting": "[2]; 10 μM Hepatocytes, 4 h", "result": 68, "unit": "%"},
      {"measurement": "Relative LC/MS peak area remaining", "setting": "[2]; 10 μM Hepatocytes, 8 h", "result": 42, "unit": "%"},
      {"measurement": "Relative LC/MS peak area remaining", "setting": "[2]; 10 μM Hepatocytes, 24 h", "result": 1, "unit": "%"},
      {"measurement": "Relative LC/MS peak area remaining", "setting": "[2]; 10 μM Hepatocytes, 48 h", "result": 0, "unit": "%"},
      {"measurement": "Relative LC/MS peak area remaining", "setting": "[2]; 10 μM Hepatocytes, 72 h", "result": 0, "unit": "%"},
      {"measurement": "Relative LC/MS peak area remaining", "setting": "[2]; 10 μM Stromal cells, 0 h", "result": 100, "unit": "%"},
      {"measurement": "Relative LC/MS peak area remaining", "setting": "[2]; 10 μM Stromal cells, 4 h", "result": 99, "unit": "%"},
      {"measurement": "Relative LC/MS peak area remaining", "setting": "[2]; 10 μM Stromal cells, 8 h", "result": 105, "unit": "%"},
      {"measurement": "Relative LC/MS peak area remaining", "setting": "[2]; 10 μM Stromal cells, 24 h", "result": 86, "unit": "%"},
      {"measurement": "Relative LC/MS peak area remaining", "setting": "[2]; 10 μM Stromal cells, 48 h", "result": 98, "unit": "%"},
      {"measurement": "Relative LC/MS peak area remaining", "setting": "[2]; 10 μM Stromal cells, 72 h", "result": 104, "unit": "%"},
      {"measurement": "Metabolic turnover in the presence of hepatocytes", "setting": "[2]; 24h", "result": "complete disappearance"},
      {"measurement": "Predicted hepatic extraction ratio", "setting": "[2]; human", "result": 67, "unit": "%"},
      {"measurement": "Relative Proportion of compounds identified", "setting": "[3]", "result": 25, "unit": "%"}
    ]},
    {"smiles": "CN(C)CCc1c[nH]c2cccc(O)c12", "note": "[psilocin]", "values": [
      {"measurement": "Ki", "setting": "[4]", "result": 48, "unit": "nM"}
    ]},
    {"smiles": "CN(C)CCc1c[nH]c2ccccc12", "note": "[DMT, N,N-dimethyltryptamine]", "values": [
      {"measurement": "Ki", "setting": "[5]", "result": 117, "unit": "nM"}
    ]}
  ]
}
